Measured values reported in ChEMBL document CHEMBL4616698, “Scaffold Repurposing of in-House Chemical Library toward the Identification of New Casein Kinase 1 δ Inhibitors” (ACS Med Chem Lett, 2020).

Experiments:
[1] = target: Casein kinase 1, delta tv1 (Sus scrofa, UniProt M3VH47); experiment: Inhibition of porcine brain CK-1delta using RRKHAAIGpSAYSITA peptide as substrate incubated for 30 mins in presence of [gamma-33P]-ATP by scintillation counting method
[2] = target: Casein kinase I isoform delta (Homo sapiens, UniProt P48730); experiment: Inhibition of full length recombinant human GST-tagged CSNK1D expressed in baculovirus expression system using casein as substrate incubated for 10 mins in presence of ATP by KinaseGlo luminescence assay
Chain of Casein kinase I isoform delta (P48730 whole entry, canonical isoform): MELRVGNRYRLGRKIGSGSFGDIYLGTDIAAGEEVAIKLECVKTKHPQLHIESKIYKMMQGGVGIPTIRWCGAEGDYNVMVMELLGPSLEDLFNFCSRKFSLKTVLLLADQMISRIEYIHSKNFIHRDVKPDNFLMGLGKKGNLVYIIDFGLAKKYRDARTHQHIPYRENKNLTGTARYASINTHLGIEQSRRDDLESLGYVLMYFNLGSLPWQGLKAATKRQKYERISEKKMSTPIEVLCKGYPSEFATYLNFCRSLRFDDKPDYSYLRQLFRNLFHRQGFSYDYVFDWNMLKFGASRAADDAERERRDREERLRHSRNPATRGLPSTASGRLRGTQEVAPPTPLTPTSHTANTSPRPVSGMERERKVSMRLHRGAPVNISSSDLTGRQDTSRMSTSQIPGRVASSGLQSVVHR

Chain of Casein kinase 1, delta tv1 (M3VH47 whole entry, canonical isoform): as the sequence (P48730 whole entry, canonical isoform) above, with V340A, P401A, S406A, V412A counted along it

Row | IC50 [1] | IC50 [2] | Structure (SMILES)
1 | 0.0077 µM | – | Nc1nccc(-c2c(-c3ccc(F)cc3)ncn2C2CCCCC2)n1
2 | – | 15.2 µM | CCn1ccc2c3c(=O)cc(-c4cccc5ccccc45)[nH]c3ccc21
3 | – | 13 µM | Oc1cc(-c2cccc(Br)c2)nc2ccc3[nH]ccc3c12
